Here are results for 1 compound from paper PMC10485003, “Antibiotic hyper-resistance in a class I aminoacyl-tRNA synthetase with altered active site signature motif” (Nature Communications, 2023).

Assay [1] addresses T1, P53A/G60N/R61K PmIleRS2 (Priestia megaterium, UniProt A0A0B6AVD3, G60N/P53A/R61K).
T1 sequence (A0A0B6AVD3 1-1032 P53A/G60N/R61K): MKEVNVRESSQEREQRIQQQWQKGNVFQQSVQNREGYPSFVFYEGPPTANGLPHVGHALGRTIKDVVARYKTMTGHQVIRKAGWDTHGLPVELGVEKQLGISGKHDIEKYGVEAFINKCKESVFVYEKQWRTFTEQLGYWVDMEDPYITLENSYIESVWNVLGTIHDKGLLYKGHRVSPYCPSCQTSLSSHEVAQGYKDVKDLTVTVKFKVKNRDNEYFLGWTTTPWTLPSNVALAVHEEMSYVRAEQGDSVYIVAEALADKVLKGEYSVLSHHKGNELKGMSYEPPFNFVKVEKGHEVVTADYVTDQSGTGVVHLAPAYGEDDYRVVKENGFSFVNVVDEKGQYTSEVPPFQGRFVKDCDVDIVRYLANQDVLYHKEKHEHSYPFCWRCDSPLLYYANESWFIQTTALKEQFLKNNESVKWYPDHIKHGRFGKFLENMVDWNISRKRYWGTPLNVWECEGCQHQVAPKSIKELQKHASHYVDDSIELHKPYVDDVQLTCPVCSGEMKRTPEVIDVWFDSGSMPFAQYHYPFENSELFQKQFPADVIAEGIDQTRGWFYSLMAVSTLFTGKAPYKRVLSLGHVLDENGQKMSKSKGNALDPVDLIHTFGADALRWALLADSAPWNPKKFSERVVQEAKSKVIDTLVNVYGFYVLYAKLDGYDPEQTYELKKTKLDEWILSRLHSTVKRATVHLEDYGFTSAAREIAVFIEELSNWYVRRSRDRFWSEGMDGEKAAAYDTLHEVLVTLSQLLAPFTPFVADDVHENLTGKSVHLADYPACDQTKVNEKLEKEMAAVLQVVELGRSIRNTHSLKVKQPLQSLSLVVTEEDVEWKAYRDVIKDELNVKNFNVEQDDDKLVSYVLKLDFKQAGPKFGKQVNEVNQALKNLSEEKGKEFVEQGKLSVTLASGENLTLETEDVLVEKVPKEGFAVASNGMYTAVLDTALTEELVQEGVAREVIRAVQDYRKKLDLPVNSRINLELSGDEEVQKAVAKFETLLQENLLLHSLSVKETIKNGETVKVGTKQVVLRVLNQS
Kind of assay: Activation step kinetics of reciprocal-residue mutants, mupirocin inhibition. It is filed as biochemical, Priestia (Bacillus) megaterium. The note with it: peer review response Table 1, read-out: Ki (Mup). As to the method:
(§1) L-Ile and ATP concentrations ranged from 1/10 KM to 10 KM values. When measuring the KI towards one of the substrates, the other was held in saturation (concentrations at least 10 KM). The aliquots of the reaction mixture (1–2.5 μl) were quenched in 2 volumes of 500 mM NaOAc pH = 4.5, 0.1% SDS, and formed ^32P-ATP was separated from the remaining ^32P-PPi by thin-layer chromatography on Polygram CEL 300 PEI UV254 TLC plates (Macherey-Nagel, cat: 801063) using 750 mM KH2PO4 pH=3.5, 4 M urea buffer. Visualization and quantification of the signals was performed using a Typhoon Phosphoimager 5 (General Electric) and accompanying ImageQuant™ TL software (SV: 10.2). The kinetic constants were determined using a global fit option of the competitive inhibition model of GraphPad Prism 6 software (SV: 6.01). All experiments were performed in triplicates. The kcat was determined by dividing the maximal velocity, VM, with the used enzyme concentration. […]
(§2) same catalytic mechanisms. Further, mutation of the natural ALHH motif of DrIleRS2 to ALGH led to the loss of activity, showing that IleRS2 enzymes also require the 1st/3rd His for the activity (i.e. implying the same reaction mechanisms).
(§3) To address this point, we changed the sentence “This allows accommodation of the 3rd His in mut-GVHH-PmIleRS2 in a productive manner without a clash with the adenine […]
(§4) This allows accommodation of the 3 rd His in mut-GVHH-PmIleRS2 without displacement of the adenine moiety. This way, the 3rd His can take over the role of the 1 st His in the canonical reaction mechanism (Fig. 4B). (Page 9, lines 216-218)
(§5) We agree with the reviewer that the active sites of IleRS1 and IleRS2 differ in structural features allowing rearrangement of the α1-helix solely in IleRS2. We were eager t o understand the basis of it and mutated several conserved positions, within and around helix 1, in IleRS1 by introducing the analogous residues found in IleRS2. The same was done for IleRS2. […]
(§6) Table 1. Catalytic activity of the IleRS1 and IleRS2 mutants with exchanged reciprocal residues measured in the activation step […]

The target of assay [2] is T2, P53A/G60N/R61K/W130Q/Y126S PmIleRS2 (Priestia megaterium, UniProt A0A0B6AVD3, G60N/P53A/R61K/W130Q/Y126S).
T2 sequence (A0A0B6AVD3 1-1032 P53A/G60N/R61K/Y126S/W130Q): T1 sequence (A0A0B6AVD3 1-1032 P53A/G60N/R61K)
The assay is described as above. To be noted: peer review response Table 1, read-out: Ki (Mup). It is filed as biochemical, Priestia (Bacillus) megaterium. As to the method:
as §1, §2, §3, §4, §5, §6

Assay [3] deals with T3, W130Q/Y126S PmIleRS2 (Priestia megaterium, UniProt A0A0B6AVD3, W130Q/Y126S).
T3 sequence (A0A0B6AVD3 1-1032 Y126S/W130Q): T1 sequence (A0A0B6AVD3 1-1032 P53A/G60N/R61K)
Described as above. It is filed as biochemical, Priestia (Bacillus) megaterium. To be noted: peer review response Table 1, read-out: Ki (Mup). The method, then:
as §1, §2, §3, §4, §5, §6

Assay [4] concerns IleRS2. Kind of assay: Mupirocin inhibition of IleRS2 compared with IleRS1. The note with it: IleRS1 strongly, IleRS2 modestly inhibited. It counts as biochemical, bacteria.

Broadly, the Ki is the dissociation constant of the complex between target and ligand, obtained from inhibition or displacement.

As to `C/C(=C\C(=O)OCCCCCCCCC(=O)O)C[C@@H]1OC[C@H](C[C@@H]2O[C@H]2[C@@H](C)[C@H](C)O)[C@@H](O)[C@H]1O` [mupirocin], the Ki turned out to be 3.1 ± 0.2 µM in assay [1], 21.1 ± 0.7 µM in assay [2] and 3.2 ± 0.1 µM in assay [3]. For the same compound, the “difference in Ki between IleRS1 and IleRS2” value in assay [4] was 10^3−10^5 fold.
